Test results published in paper PMC7571127, “Daurichromenic Acid from the Chinese Traditional Medicinal Plant Rhododendron dauricum Inhibits Sphingomyelin Synthase and Aβ Aggregation” (Molecules, 2020).
Read-outs that look alike come from different tables or passages of the source.

Columns and labels:
SMS2 = target: T1, SMS2 (Homo sapiens, UniProt Q8NHU3); assay: SMS assay, cell lysate with fluorescent substrate C6-NBD-Cer (SMS2); assay type: biochemical
T1 construct: expressed in transfected cells; host or cells: ZS/SMS2 cells (sonicated lysate)
T1 sequence (Q8NHU3 1-365): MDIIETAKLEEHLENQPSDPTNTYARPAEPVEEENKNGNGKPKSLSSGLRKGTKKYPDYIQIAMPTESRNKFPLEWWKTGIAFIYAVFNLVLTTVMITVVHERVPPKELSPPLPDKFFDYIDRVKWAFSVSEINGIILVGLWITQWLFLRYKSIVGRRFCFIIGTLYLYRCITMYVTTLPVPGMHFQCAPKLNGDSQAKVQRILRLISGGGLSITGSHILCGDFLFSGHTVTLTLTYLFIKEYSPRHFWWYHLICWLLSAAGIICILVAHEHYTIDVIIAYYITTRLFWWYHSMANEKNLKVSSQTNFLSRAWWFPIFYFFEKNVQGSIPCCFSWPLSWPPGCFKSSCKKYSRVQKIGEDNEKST
Protocol: (§1) The ability of DCA and its derivatives to inhibit the SMS isozymes SMS1 and SMS2 was evaluated using a cell lysate assay and the fluorescent substrate C6-NBD (4-nitrobenzo-2-oxa-1,3-diazole)-Cer. […] Thus, the carboxylic acid group of DCAs are essential moieties for their inhibition of SMSs. However, the SMS has not been succeeded in its crystallization. Therefore, a direct comparison with the previously isolated SMS inhibitor ginkgolic acid has been examined. […] Further, a previous report concerning the mode of action for Aβ aggregation inhibition for small molecules gave the insight that the crucial role of a hydrophobic-side hydrocarbon chain and an aromatic ring as well as its two hydrophilic functions causes significant interaction with the amyloid.
(§2) ZS/SMS1 and ZS/SMS2 cells (protein concentration 0.1 µg/µL) were diluted in 20 mM Tris-buffer (pH 7.5) and sonicated. A 1 µL aliquot of each compound at the desired concentration was added to 100 µL aliquots of the cell lysates and the solutions were incubated at 37 °C for 30 min. A 1 µL aliquot of C6-NBD-ceramide was added to each solution and the solutions were incubated for 3 h at 37 °C. The reactions were stopped by addition of 400 µL of MeOH/CHCl3 [1/2 (v/v)], and the mixtures were shaken and centrifuged at 1500 rpm for 5 min. The formation of C6-NBD-sphingomyelin was quantified by HPLC determination of its peak area. Inhibitory activity was quantified by a reverse-phase HPLC assay using a JACSO HPLC system, equipped with a PU-2089 Plus and FP-2020 Plus set at λex = 470 nm and λem = 530 nm. A 50 × 4.6 YMC-Pack Diol-120-NP column (5-µm particle size) was used with the mobile phase (IPA/hexane/water) at a flow rate of 1.0 mL/min
(§3) Figure 1 Inhibition of SMS1 and SMS2 activities by (a) DCA (1), (b) derivative (4), (c) derivative (6) and (d) derivative (7). IC50 values were measured using a cell lysate assay. SMS-expressing cell lysates and compounds were incubated for 3 h at 37 °C, and the extracted fluorescent lipids were directly analyzed by HPLC. Each point represents the mean ± SD of triplicate assays.

SMS1 = target: T2, SMS1 (Homo sapiens, UniProt Q86VZ5); assay: SMS assay, cell lysate with fluorescent substrate C6-NBD-Cer (SMS1); assay type: biochemical
T2 construct: expressed in transfected cells; host or cells: ZS/SMS1 cells (sonicated lysate)
T2 sequence (Q86VZ5 1-413): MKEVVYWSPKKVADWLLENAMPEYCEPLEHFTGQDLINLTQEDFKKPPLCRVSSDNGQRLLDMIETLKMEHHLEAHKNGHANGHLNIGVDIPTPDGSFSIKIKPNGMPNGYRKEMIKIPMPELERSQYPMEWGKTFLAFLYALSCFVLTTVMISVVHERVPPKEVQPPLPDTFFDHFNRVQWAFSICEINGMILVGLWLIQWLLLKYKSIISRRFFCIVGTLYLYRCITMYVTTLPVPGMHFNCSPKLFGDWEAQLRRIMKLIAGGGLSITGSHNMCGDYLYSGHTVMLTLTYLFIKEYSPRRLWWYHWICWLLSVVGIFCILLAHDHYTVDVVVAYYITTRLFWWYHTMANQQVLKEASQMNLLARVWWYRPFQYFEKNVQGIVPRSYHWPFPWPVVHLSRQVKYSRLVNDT
Protocol: as §1, §2, §3

Aβ42 aggregation [1] = target: T3, Aβ42 aggregation (Homo sapiens, UniProt P05067); assay: Aβ aggregation inhibition, microtiter-scale high-throughput screening (MSHTS) assay; assay type: biochemical
T3 construct: 30 nM QD-labeled Aβ40 (QDAβ), and 30 μM Aβ42 in PBS
Protocol: Alzheimer’s disease (AD) is a multifactorial disease, which is believed to be caused by complex interactions among several contributing patho-mechanisms. The ability of DCA and its derivatives, along with other natural compounds, ginkgolic acids (8, 9) (Figure 2) and malabaicone A–C (10, 11 and 12), to inhibit Aβ42 aggregation was evaluated by microtiter-scale high-throughput screening (MSHTS) assays. EC50 values were measured from inhibition curves, in which the percent SDs of fluorescence intensities were plotted against the concentration of each compound (Figure 3). Here, 30 nM quantum dot amyloid beta (QDAβ) and 30 µM of Aβ were incubated with different concentrations to evaluate the EC50 of all derivatives. […] The inhibitory activities of the other cyclized DCAs and malabaricones were lower (Figure S2).
The aggregation inhibitory activities of plant extracts, fractions, DCA, DCA derivatives, and naturally occurring SMS inhibitors (compounds 8, 9, and 10) were measured using a modified MSHTS system. Various concentrations of each were incubated with 30 nM QD-labeled Aβ40 (QDAβ), and 30 μM Aβ42 in PBS containing 5% EtOH and 3% DMSO at 37 °C for 24 h in 1536-well plates (782096, Greiner) (Kremsmünster, Austria). The center of each well as viewed with an inverted fluorescence microscope (TE2000, Nikon)) (Tokyo, Japan) equipped with a color CCD camera (DP72, Olympus) (Tokyo, Japan), and the central region of each well were measured with ImageJ software Ver 1.53b (NIH) to determine the standard deviations (SD) of fluorescence intensities of 40,000 pixels (200 × 200 pixels: 320 × 320 μm). The SD values, which were approximately proportional to the amount of aggregates, were plotted against the concentrations of the putative inhibitors to generate inhibition curves, and the EC50 values were determined.
Figure 3 (A) Inhibition of Aβ42 aggregation by DCA, its derivatives, and natural sphingomyelin synthase inhibitors, as shown by incubation of 30 nM QDAβ and 30 µM Aβ with various concentrations of these compounds. (B) Estimation of EC50 values from inhibition curves, in which the percent SDs of fluorescence intensities were plotted against the concentrations of these compounds.

sphingomyelin synthase = assay: SMS activity, isozyme not specified (abstract value; fractions of Rhododendron dauricum extract); assay type: biochemical; details: isozyme not stated, read-out: IC50, inhibition of sphingomyelin synthase activity
Aβ42 aggregation [2] = target: T3, Aβ42 aggregation; design: method as in PMID 23991168; details: comparison value; read-out: EC50 of Aβ aggregation inhibition (MSHTS); cited from earlier work
[3] = ZS/SMS2 cell lysate, C6-NBD-ceramide, 3 h at 37 °C, HPLC
[4] = ZS/SMS1 cell lysate, C6-NBD-ceramide, 3 h at 37 °C, HPLC
[5] = ZS/SMS2 cell lysate, C6-NBD-ceramide, 3 h at 37 °C, HPLC, read-out: SMS Assay (SMS2) IC50
[6] = 30 nM QDAβ and 30 µM Aβ42, 37 °C, 24 h, read-out: MHSTS Assay EC50 (inhibition of Aβ42 aggregation)
[7] = ZS/SMS1 cell lysate, C6-NBD-ceramide, 3 h at 37 °C, HPLC, read-out: SMS Assay (SMS1) IC50

T3 sequence (P05067 672-713 limits assumed): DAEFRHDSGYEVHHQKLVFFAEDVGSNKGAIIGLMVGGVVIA

| SMILES | SMS Assay (SMS2) IC50 (SMS2; [3]) | SMS Assay (SMS1) IC50 (SMS1; [4]) | IC50 (SMS2; [5]) | EC50 (Aβ42 aggregation [1]; [6]) | IC50 (SMS1; [7]) | other results |
| --- | --- | --- | --- | --- | --- | --- |
| COC(=O)c1c(C)cc2c(c1OC)C=C[C@](C)(CC/C=C(\C)CCC=C(C)C)O2 [Compound 3, Methyl(S,E)-2-(4,8-dimethylnona-3,7-dien-1-yl)-5-methoxy-2,7-dimethyl-2H-chromene-6 carboxylate] | inactive | inactive |  |  |  |  |
| COC(=O)c1c(C)cc2c(c1O)C=C1[C@]3(C)CCCC(C)(C)[C@H]3CC[C@]1(C)O2 [Compound 5, (−)-(5R,8S,10R)-9,15-Didehydro hongoquercin A methyl ester] | inactive | inactive |  |  |  |  |
| Cc1cc2c(c(O)c1C(=O)O)CC1[C@]3(C)CCCC(C)(C)[C@H]3CC[C@]1(C)O2 (single isomer, unassigned; (-)) [Compound 7, (−) Hongoquercin A] |  |  | 5 µM | 238 µM | 4 µM |  |
| CCCCCC/C=C\CCCCCCCc1cccc(O)c1C(=O)O [Compound 8, ginkgolic acid, reference compound] |  |  | 1.5 µM | 149 µM | 1.5 µM |  |
| CC(C)=CCC/C(C)=C/CC[C@@]1(C)C=Cc2c(cc(C)c(C(=O)O)c2O)O1 [Compound 1, Daurichromenic acid] |  |  |  |  |  | IC50 (SMS2): 4 µM; EC50 (Aβ42 aggregation [1]): 57 µM; IC50 (sphingomyelin synthase): 4 µM; IC50 (SMS1): 7 µM |
| COc1c2c(cc(C)c1C(=O)O)O[C@@](C)(CC/C=C(\C)CCC=C(C)C)C=C2 [Compound 4, (S,E)-2-(4,8-Dimethylnona-3,7-dien-1-yl)-5-methoxy-2,7-dimethyl-2H-chromene-6-carboxylic acid] |  |  | 10 µM | 74 µM | 17 µM |  |
| COC(=O)c1c(C)cc2c(c1O)C=C[C@](C)(CC/C=C(\C)CCC=C(C)C)O2 [Compound 2, Methyl Ester of DCA] | inactive | inactive |  |  |  |  |
| CCCCCCCCCCCCCCCc1cccc(O)c1C(=O)O [Compound 9, ginkgolic acid, reference compound] |  |  | 2 µM | 296 µM | 2 µM |  |
| Cc1cc2c(c(O)c1C(=O)O)C=C1[C@]3(C)CCCC(C)(C)[C@H]3CC[C@]1(C)O2 [Compound 6, (−)-(5R,8S,10R)-9,15-Didehydro hongoquercin A] |  |  | 7 µM |  | 9 µM |  |
| O=C(/C=C/c1ccc(O)c(O)c1)O[C@H](Cc1ccc(O)c(O)c1)C(=O)O [rosmarinic acid] |  |  |  |  |  | EC50 (Aβ42 aggregation [2]): 60 µM |
